Numbers after ± are expanded uncertainties.
Conditions: 298.15 K; 101.33 kPa; Liquid; Pycnometric method

mass density [kg/m3] | SMILES
679.5 ± 0.6 | CCCCCCC [heptane]
786.8 ± 0.7 | CO [methanol]
740.6 ± 1.7 | COC(C)(C)C [2-methoxy-2-methylpropane]
765.2 ± 0.7 | CC1CCCCC1 [methylcyclohexane]

From the NIST ThermoML archive (doi:10.1021/je050029o)
